The results in this text go back to patent publication US9376425B2, “Heterocyclic compounds as MDM2 inhibitors for the treatment of cancer” (AMGEN INC., priority 2011, dated 2016).

T1 sequence (Q00987 1-188): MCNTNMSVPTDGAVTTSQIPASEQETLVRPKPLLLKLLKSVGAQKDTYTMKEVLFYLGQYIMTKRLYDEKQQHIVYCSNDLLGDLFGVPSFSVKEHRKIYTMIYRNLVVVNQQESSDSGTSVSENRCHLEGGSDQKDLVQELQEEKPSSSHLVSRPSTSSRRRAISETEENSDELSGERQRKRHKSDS
T2 sequence (Q00987 1-188): as above

One test has as its target T1, human MDM2 (GST-hMDM2 1-188), interaction with biotinylated-p53 (1-83) (Homo sapiens, UniProt Q00987).
T1 construct: Amino acid residues 1-188 of human MDM2 were expressed; made in house; host or cells: Escherichia coli
The experiment in a line: improved HTRF assay (HTRF2 assay), inhibition of HDM2-p53 interaction. Format: binding. The conditions noted are these: 0.2 nM GST-hMDM2, 0.5 nM biotinylated-p53, 100 mM KF. The method, boiled down:
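GST-hMDM2 preincubated 20 min at RT with serially diluted compound, then biotinylated p53 (1-83, E. coli) added for 60 min. Detection with SA-XLent, anti-GST cryptate and KF, equilibrated >4 h; final DMSO 2%. TR-FRET read; % inhibition calculated relative to nutlin-3.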
Consider `Cn1ccnc1C[C@H]1O[C@H](c2cccc(Cl)c2)[C@@H](c2ccc(Cl)cc2)N([C@H](CS(=O)(=O)C(C)(C)C)C2CC2)C1=O` [Example 402, (2R,5R,6R)-4-((S)-2-(tert-Butylsulfonyl)-1-cyclopropylethyl)-6-(3-chlorophenyl)-5-(4-chlorophenyl)-2-((1-methyl-1H-imidazol-2-yl)methyl)morpholin-3-one], for which the IC50 (commonly the concentration that inhibits the measured activity by half) is 0.029 µM.
Still for that read-out and setting: as for “(2R,5R,6R)-4-((S)-2-(tert-Butylsulfonyl)-1-cyclopropylethyl)-6-(3-chlorophenyl)-5-(4-chlorophenyl)-2-((3-methyl-1H-1,2,4-triazol-5-yl)methyl)morpholin-3-one and (2S,5R,6R)-4-((S)-2-(tert-butylsulfonyl)-1-cyclopropylethyl)-6-(3-chlorophenyl)-5-(4-chlorophenyl)-2-((3-methyl-1H-1,2,4-triazol-5-yl)methyl)morpholin-3-one [Example 391]”, the figure is 0.004 µM; as for “Methyl 2-((2R,5R,6R)-6-(3-chlorophenyl)-5-(4-chlorophenyl)-4-((S)-1-((2-(dimethylamino)ethyl)sulfonyl)butan-2-yl)-3-oxomorpholin-2-yl)acetate and methyl 2-((2S,5R,6R)-6-(3-chlorophenyl)-5-(4-chlorophenyl)-4-((S)-1-((2-(dimethylamino)ethyl)sulfonyl)butan-2-yl)-3-oxomorpholin-2-yl)acetate [Example 246]”, 0.006 µM.

A further test has as its target T2, human MDM2 (GST-hMDM2 aa 1-188), interaction with biotinylated-p53 (aa 1-83) (Homo sapiens, UniProt Q00987).
T2 construct: Amino acid residues 1-188 of human MDM2 were expressed; made in house; host or cells: Escherichia coli
The experiment in a line: Homogenous Time-Resolved Fluorescence Assay (HTRF1 assay), inhibition of HDM2-p53 interaction. Format: binding. To be noted: 2.5 nM GST-hMDM2, 5 nM biotinylated-p53, 200 mM KF. The protocol: Homogenous Time-Resolved Fluorescence Assay (HTRF1 Assay)
Residues 1-83 of human p53 were expressed as an amino-terminal AviTag™-TrxA-6xHis fusion protein (biotinylated p53) in E. coli. Each protein was purified from cell paste by affinity chromatography.
Specifically, 10 uL of GST-hMDM2 was incubated with 10 ul of diluted compound (various concentrations, serially diluted) in 10% DMSO for 20 minutes at room temperature. 20 uL of biotinylated-p53 was added to the GST-hMDM2+ compound mixture, and then incubated at room temperature for 60 min. 10 uL of detection buffer consisting of SA-XLent, anti-GST cryptate antibody and KF was added to GST-hMDM2, biotinylated-p53 and compound reaction and left at room temperature to reach equilibrium for >4 hrs. The final concentration of DMSO in the reaction was 2%. Time-resolved fluorescence readings were measured on a microplate multilabel reader. Percentage of inhibition was calculated relative to nutlin-3.
As to `Cn1c([C@@H]2[C@@H](c3cccc(Cl)c3)O[C@H](CC(=O)O)C(=O)N2CC2CC2)nc2ccccc21.Cn1c([C@H]2[C@H](c3cccc(Cl)c3)O[C@@H](CC(=O)O)C(=O)N2CC2CC2)nc2ccccc21` (mixture of isomers) [Example 6, 2-((2R,5R,6R)-6-(3-Chlorophenyl)-4-(cyclopropylmethyl)-5-(1-methyl-1H-benzo[d]imidazol-2-yl)-3-oxomorpholin-2-yl)acetic acid and 2-((2S,5S,6S)-6-(3-Chlorophenyl)-4-(cyclopropylmethyl)-5-(1-methyl-1H-benzo[d]imidazol-2-yl)-3-oxomorpholin-2-yl)acetic acid], the IC50 is 46.7 µM.
Same read-out and setting: the figure for `O=C1[C@@H](Cc2nnn[nH]2)O[C@H](c2cccc(Cl)c2)[C@@H](c2ccc(Cl)cc2)N1CC1CC1.O=C1[C@H](Cc2nnn[nH]2)O[C@H](c2cccc(Cl)c2)[C@@H](c2ccc(Cl)cc2)N1CC1CC1` (mixture of isomers) [Example 50, (2S,5R,6R)-6-(3-Chlorophenyl)-5-(4-chlorophenyl)-4-(cyclopropylmethyl)-2-((tetrazol-5-yl)methyl)morpholin-3-one and (2R,5R,6R)-6-(3-Chlorophenyl)-5-(4-chlorophenyl)-4-(cyclopropylmethyl)-2-((tetrazol-5-yl)methyl)morpholin-3-one] is 0.7 µM; for `O=C(O)C[C@@H]1O[C@H](c2cccc(Cl)c2)[C@@H](c2nc3ccccc3s2)N(CC2CC2)C1=O` (racemic) [Example 3, 2-((2S,5S,6R)-5-(Benzo[d]thiazol-2-yl)-6-(3-chlorophenyl)-4-(cyclopropylmethyl)-3-oxomorpholin-2-yl)acetic acid and 2-((2R,5R,6S)-5-(Benzo[d]thiazol-2-yl)-6-(3-chlorophenyl)-4-(cyclopropylmethyl)-3-oxomorpholin-2-yl)acetic acid] it is 23.5 µM; for `O=C(O)C[C@H]1O[C@H](c2cccc(Cl)c2)[C@@H](c2nc3ccccc3s2)N(CC2CC2)C1=O` (racemic) [Example 4, 2-((2R,5S,6R)-5-(Benzo[d]thiazol-2-yl)-6-(3-chlorophenyl)-4-(cyclopropylmethyl)-3-oxomorpholin-2-yl)acetic acid and 2-((2S,5R,6S)-5-(Benzo[d]thiazol-2-yl)-6-(3-chlorophenyl)-4-(cyclopropylmethyl)-3-oxomorpholin-2-yl)acetic acid] it is 25 µM.
As to `Cn1c([C@@H]2[C@@H](c3cccc(Cl)c3)O[C@@H](CC(=O)O)C(=O)N2CC2CC2)nc2ccccc21` (racemic) [Example 5, 2-((2S,5R,6R)-6-(3-Chlorophenyl)-4-(cyclopropylmethyl)-5-(1-methyl-1H-benzo[d]imidazol-2-yl)-3-oxomorpholin-2-yl)acetic acid and 2-((2R,5S,6S)-6-(3-Chlorophenyl)-4-(cyclopropylmethyl)-5-(1-methyl-1H-benzo[d]imidazol-2-yl)-3-oxomorpholin-2-yl)acetic acid], half-maximal inhibition (IC50) required 39.5 µM.
Same read-out and setting: as for `O=C(O)C[C@H]1O[C@H](c2cccc(Cl)c2)[C@@H](c2cc3ccccc3[nH]2)N(CC2CC2)C1=O` (single isomer, unassigned) [Example 1, 2-((2R,5R,6R)-6-(3-Chlorophenyl)-4-(cyclopropylmethyl)-5-(1H-indol-2-yl)-3-oxomorpholin-2-yl)acetic acid or 2-((2S,5R,6R)-6-(3-Chlorophenyl)-4-(cyclopropylmethyl)-5-(1H-indol-2-yl)-3-oxomorpholin-2-yl)acetic acid], the figure is 33.4 µM; as for `O=C(O)C[C@@H]1O[C@H](c2cccc(Cl)c2)[C@@H](c2cc3ccccc3[nH]2)N(CC2CC2)C1=O` (single isomer, unassigned) [Example 2, 2-((2S,5R,6R)-6-(3-Chlorophenyl)-4-(cyclopropylmethyl)-5-(1H-indol-2-yl)-3-oxomorpholin-2-yl)acetic acid or 2-((2R,5R,6R)-6-(3-Chlorophenyl)-4-(cyclopropylmethyl)-5-(1H-indol-2-yl)-3-oxomorpholin-2-yl)acetic acid], 31.4 µM; as for `O=C(O)C[C@@H]1O[C@H](c2cccc(Cl)c2)[C@@H](c2ccc(Cl)cn2)N(CC2CC2)C1=O` (single isomer, unassigned) [Example 7], 1.1 µM.
Compound `O=C(O)C[C@H]1OC(c2cccc(Cl)c2)[C@@H](c2ccc(Cl)cn2)N(CC2CC2)C1=O` (single isomer, unassigned) [Example 8] yielded an IC50 of 1.6 µM.
The same measure, in the same setting: the figure for `C[C@H](C1CCCCC1)N1C(=O)[C@H](CC(=O)O)O[C@H](c2cccc(Cl)c2)[C@H]1c1ccc(Cl)cc1` (single isomer, unassigned) [Example 18, 2-((2S,5R,6R)-6-(3-chlorophenyl)-5-(4-chlorophenyl)-4-((R)-1-cyclohexylethyl)-3-oxomorpholin-2-yl)acetic acid or 2-((2S,5R,6R)-6-(3-Chlorophenyl)-5-(4-chlorophenyl)-4-((S)-1-cyclohexylethyl)-3-oxomorpholin-2-yl)acetic acid] is 0.1 µM; for `C[C@@H](C1CCCCC1)N1C(=O)[C@H](CC(=O)O)O[C@H](c2cccc(Cl)c2)[C@H]1c1ccc(Cl)cc1` (single isomer, unassigned) [Example 19, 2-((2S,5R,6R)-6-(3-chlorophenyl)-5-(4-chlorophenyl)-4-((S)-1-cyclohexylethyl)-3-oxomorpholin-2-yl)acetic acid or 2-((2S,5R,6R)-6-(3-chlorophenyl)-5-(4-chlorophenyl)-4-((R)-1-cyclohexylethyl)-3-oxomorpholin-2-yl)acetic acid] it is 0.6 µM; for `CC[C@H](C(=O)OC(C)(C)C)N1C(=O)[C@H](CC(=O)O)O[C@H](c2cccc(Cl)c2)[C@H]1c1ccc(Cl)cc1` (single isomer, unassigned) [Example 30] it is 1.8 µM.
Turning to `CC[C@@H](C(=O)OC(C)(C)C)N1C(=O)[C@H](CC(=O)O)O[C@H](c2cccc(Cl)c2)[C@H]1c1ccc(Cl)cc1` (single isomer, unassigned) [Example 31], the IC50 stood at 0.1 µM.
Turning to `CC[C@@H](C(=O)OC(C)(C)C)N1C(=O)[C@@H](CC(=O)O)O[C@H](c2cccc(Cl)c2)[C@H]1c1ccc(Cl)cc1` (single isomer, unassigned) [Example 32], the IC50 is 0.1 µM.
As for `CC[C@H](C(=O)OC(C)(C)C)N1C(=O)[C@@H](CC(=O)O)O[C@H](c2cccc(Cl)c2)[C@H]1c1ccc(Cl)cc1` (single isomer, unassigned) [Example 33], inhibition was half-maximal at 1.1 µM (IC50).
On the same count and under the same terms, the figure for `O=C(O)C[C@H]1O[C@H](c2cccc(Cl)c2)[C@@H](c2ccc(Cl)cc2F)N(CC2CC2)C1=O` (single isomer, unassigned) [Example 62] is 0.9 µM; for `O=C(O)CC1O[C@H](c2cccc(Cl)c2)[C@@H](c2ccc(Br)cc2)N(CC2CC2)C1=O` (single isomer, unassigned) [Example 67] it is 17.5 µM.
With `O=C(O)CC1O[C@H](c2cccc(Cl)c2)[C@@H](c2ccc(Br)cc2)N(CC2CC2)C1=O` (single isomer, unassigned) [Example 68], the IC50 turned out to be 14.2 µM.
`O=C(O)CC1O[C@H](c2cccc(Cl)c2)[C@@H](c2ccc(Cl)nc2)N(CC2CC2)C1=O` (single isomer, unassigned) [Example 71] yielded an IC50 of 3.1 µM.
Compound `O=C(O)CC1O[C@H](c2cccc(Cl)c2)[C@@H](c2ccc(Cl)nc2)N(CC2CC2)C1=O` (single isomer, unassigned) [Example 72] yielded an IC50 of 1.5 µM.
Still for that read-out and setting: the figure for `COc1ccc([C@@H]2[C@@H](c3cccc(Cl)c3)OC(CC(=O)O)C(=O)N2CC2CC2)cn1` (single isomer, unassigned) [Example 73] is 11.6 µM.
